In experiment [1] the test system is HBeAg level (surrogate marker for cccDNA) in HepDES19 cells. The experiment can be described thus: Engineered HepDES19 primary screen assay (HBeAg as surrogate marker for cccDNA). Type of experiment: cell-based, HBV. The text has this: The assay was employed to screen for novel cccDNA inhibitors. HepDES19 is a cccDNA-producing cell line. In this cell line, HBeAg in the cell culture supernatant as surrogate marker, as HBeAg production depends on cccDNA level and activity. HepDES19 is an engineered cell line which contains a 1.1 unit length HBV genome, and pgRNA transcription from the transgene is controlled by Tetracycline (Tet). In the absence of Tet, pgRNA transcription will be induced, but HBV e antigen (HBeAg) could not be produced from this pgRNA due to very short leader sequence before the HBeAg start codon and the start codon is disrupted. Only after cccDNA is formed, the missing leader sequence and start codon mutation would be restored from the 3′-terminal redundancy of pgRNA, and then HBeAg could be synthesized. Therefore, HBeAg could be used as a surrogate marker for cccDNA (Zhou, T. et al., Antiviral Res. (2006), 72(2), 116-124; Guo, H. et al., J. Virol. (2007), 81(22), 12472-12484).
HepDES19 cells were seeded at 2×10^6 cells per T150 flask and cultured with the culture medium (Dulbecco's Modified Eagle Medium: Nutrient Mixture F-12 [DMEM-F12, Gibco Cat. 11320-82], 10% Fetal Bovine Serum [FBS, Clontech Cat. 631101], 0.1 mM Non-Essential Amino Acids Solution [NEAA, Gibco Cat. 11140-050], 50 μg/mL Penicillin-Streptomycin [PS, Invitrogen Cat. 15140-163], 500 μg/mL Geneticin [G418, Invitrogen Cat. 10131-027]) containing 3 μg/mL Tet (Sigma, Cat. 87128) for 5 days. Cells were then seeded at 4×10^6 cells per T150 in the same culture medium as described above in the absence of Tet for 8 days. Cells were then harvested and frozen at density of 2×10^6 cells per mL. For compound testing, the frozen cells were thawed and seeded into 96-well plates at a density of 6×10^4 cells per well. At 24 hrs after seeding, half log serial dilutions of compounds made with Dimethyl sulfoxide (DMSO, Sigma, Cat. D2650) were further diluted with the same culture medium as described above before they were added to the cells to reach desired final compound concentrations and 1% DMSO concentration. Plates were then incubated at 37° C. for another 5 days before measurement of HBeAg level and cell viability. Intracellular HBeAg level were measured with enzyme-linked immunosorbent assay (ELISA) kit (Shanghai Kehua Diagnostic Medical Products Co., Ltd). Cell viability was assessed using Cell Counting Kit-8 (Donjindo, Cat. CK04-20). IC50 values were derived from the dose-response curve using 4 parameter logistic curve fit method.
The compounds of the present invention were tested for their capacity to inhibit extracellular HBeAg level as described herein.

Experiment [2] has as its system HBV in primary human hepatocytes (PHH). The experiment can be described thus: Cryopreserved primary human hepatocytes (PHH) HBV infection assay. Type of experiment: cell-based. The conditions noted are these: HBV-infected cryopreserved PHH, 9 days post-compound treatment. The method, then: This assay is used to confirm the anti-HBV effect of the compounds in HBV PHH infection assay. Cryopreserved PHH (BioreclamationIVT, Lot YJM) was thawed at 37° C. and gently transferred into pre-warmed InVitroGRO HT medium (BioreclamationIVT, Cat. S03317). The mixture was centrifuged at 70 relative centrifugal force (RCF) for 3 minutes at RT, and the supernatant was discarded. Pre-warmed InVitroGRO CP medium (BioreclamationIVT, Cat #S03316) was added to the cell pellet to gently re-suspend cells. The cells were seeded at the density of 5.8×10^4 cells per well to collagen I coated 96-well plate (Gibco, Cat. A1142803) with the InVitroGRO CP medium. All plates were incubated at 37° C. with 5% CO2 and 85% humidity.
At 20 hours after plating, the medium was changed to PHH culture medium (Dulbecco's Modified Eagle Medium (DMEM)/F12 (1:1) (Gibco, Cat. 11320-033), 10% fetal bovine serum (Gibco Cat. 10099141), 100 U/mL penicillin, 100 μg/mL streptomycin (Gibco, Cat. 151401-122), 5 ng/mL human epidermal growth factor (Invitrogen Cat. PHG0311L), 20 ng/mL dexamethasone (Sigma, Cat. D4902) and 250 ng/mL human recombinant insulin (Gibco, Cat. 12585-014)). And the cells were incubated at 37° C. with 5% CO2 and 85% humidity for 4 hours. The medium was then changed to pre-warmed PHH culture medium containing 4% polyethylene glycol (PEG) MW8000 (Sigma, Cat. P1458-50ML) and 1% DMSO (Sigma, Cat. D2650). 5.8×10^6 genomic equivalents of HBV were added into the medium.
At 24 hours post-infection, the cells were gently washed with PBS and refreshed with PHH culture medium supplemented with 1% DMSO, and 0.25 mg/mL Matrix gel (Corning, Cat. 356237) at 200 μL per well. All plates were immediately placed in at 37° C. CO2 incubator.
24 hours later, serial dilutions of compounds made with DMSO were further diluted with the same culture medium (PHH culture medium supplemented with 1% DMSO and 0.25 mg/mL Matrix gel as described above) before they were added to the cells to reach desired final compound concentrations and 1% DMSO concentration. The medium containing the compounds were refreshed every three days.
At 9 days post-compound treatment, extracellular HBsAg level were measured with Chemiluminescence Immuno Assay (CLIA) kit (Autobio, HBsAg Quantitative CLIA). Extracellular HBV DNA was extracted by MagNA Pure 96 system (Roche) and then determined by quantitative PCR with the following primers and probe: […]
HBsAg IC50 and HBV DNA IC50 values were derived from the dose-response curve using 4 parameter logistic curve fit method. The compounds of formula (I) have HBsAg IC50<20 μM, particularly <1 μM; and HBV DNA IC50<50 μM. Test results of the compounds of this invention as well as the reference compounds in Cryopreserved PHH assay are given in Table 2 and Table 3.

[3] abbreviates: read-out: IC50 (HBeAg) in HepDES19 primary screen assay, HepDES19 cells, 5 days incubation with compound, HBeAg by ELISA.
Where [4] appears, read: extracellular HBsAg by CLIA, read-out: HBsAg IC50.
[5] abbreviates: Hepatitis B virus, Hepatocyte, 216 h, extracellular HBsAg by CLIA, read-out: HBsAg IC50.
Setting [6] is: Hepatitis B virus, HepDES19, 120 h, read-out: IC50 (HBeAg) in HepDES19 primary screen assay, HepDES19 cells, 5 days incubation with compound, HBeAg by ELISA.

By IC50 is commonly meant the concentration that gives 50% inhibition.

Read-outs that look alike come from different tables or passages of the source.

Consider `CCOC(=O)C1CC1OCCOc1ccc(-c2cc(=O)c3cccc(Cl)c3o2)cc1` (single isomer, unassigned) [Example 4-A, ethyl 2-[2-[4-(8-chloro-4-oxo-chromen-2-yl)phenoxy]ethoxy]cyclopropanecarboxylate], for which the 50% inhibitory concentration (IC50) in experiment [1] (setting [3]) came out at 0.53 µM; in experiment [2] (setting [4]), 6.34 µM.
With `CCOC(=O)C1CC1OCCOc1ccc(-c2cc(=O)c3cccc(Cl)c3o2)cc1` (single isomer, unassigned) [Example 4-B, ethyl 2-[2-[4-(8-chloro-4-oxo-chromen-2-yl)phenoxy]ethoxy]cyclopropanecarboxylate], the results for the IC50 in experiment [1] (setting [3]) and in experiment [2] (setting [4]) were 5.23 µM and 0.51 µM, respectively.
For `O=C(O)[C@H]1C[C@H]1OCCOc1ccc(-c2cc(=O)c3cccc(Cl)c3o2)cc1` (single isomer, unassigned) [Example 5-B, 2-[2-[4-(8-chloro-4-oxo-chromen-2-yl)phenoxy]ethoxy]cyclopropanecarboxylic acid], the IC50 in experiment [1] (setting [3]) came to 11.2 µM; in experiment [2] (setting [5]), 1.78 µM.
With `N#Cc1ccc2c(=O)cc(-c3ccc(OCCOC4CC(C(=O)O)C4)cc3)oc2c1Cl` (single isomer, unassigned) [Example 23-B, 3-[2-[4-(8-chloro-7-cyano-4-oxo-chromen-2-yl)phenoxy]ethoxy]cyclobutanecarboxylic acid], in experiment [2] (setting [5]), the IC50 was determined as 6.89 µM.
`O=c1cc(-c2ccc(OCCO[C@H]3C[C@@H](C(=O)O)C3)nc2)oc2c(Cl)cccc12` (single isomer, unassigned) [Example 38-A, 3-[2-[[5-(8-chloro-4-oxo-chromen-2-yl)-2-pyridyl]oxy]ethoxy]cyclobutanecarboxylic acid]: the figures for the half-maximal inhibitory concentration (IC50) in experiment [1] (setting [3]) and in experiment [2] (setting [5]) were 5.29 µM and 0.46 µM, respectively.
Regarding `O=c1cc(-c2ccc(OCCO[C@H]3C[C@@H](C(=O)O)C3)nc2)oc2c(Cl)cccc12` (single isomer, unassigned) [Example 38-B, 3-[2-[[5-(8-chloro-4-oxo-chromen-2-yl)-2-pyridyl]oxy]ethoxy]cyclobutanecarboxylic acid], the half-maximal inhibitory concentration (IC50) in experiment [1] (setting [3]) was 0.76 µM; in experiment [2] (setting [4]), 0.88 µM.
For `COC(=O)C1CC(OCCOc2ccc(-c3oc4c(Cl)cc(F)cc4c(=O)c3OC(F)(F)F)cc2)C1` (single isomer, unassigned) [Example 62-A, methyl 3-[2-[4-[8-chloro-6-fluoro-4-oxo-3-(trifluoromethoxy)chromen-2-yl]phenoxy]ethoxy]cyclobutanecarboxylate], the IC50 in experiment [1] (setting [6]) was found to be 1.01 µM; in experiment [2] (setting [5]) it was 4.22 µM.
Take `O=C(O)C1CC(OCCOc2ccc(-c3cc(=O)c4cc(C(F)(F)F)cc(Cl)c4o3)cc2)C1` (single isomer, unassigned) [Example 66-B, 3-[2-[4-[8-chloro-4-oxo-6-(trifluoromethyl)chromen-2-yl]phenoxy]ethoxy]cyclobutanecarboxylic acid]: the IC50 in experiment [1] (setting [6]) stood at 13.2 µM; in experiment [2] (setting [5]), 4.78 µM.
Turning to `O=C(O)C1CC(OCCOc2ccc(-c3cc(=O)c4ccc(C5CC5)c(Cl)c4o3)cc2)C1` (single isomer, unassigned) [Example 70-B, 3-[2-[4-(8-chloro-7-cyclopropyl-4-oxo-chromen-2-yl)phenoxy]ethoxy]cyclobutanecarboxylic acid], the values for the concentration for half-maximal inhibition (IC50) in experiment [1] (setting [3]) and in experiment [2] (setting [5]) were 2.14 µM and 4.79 µM, respectively.
Turning to `O=c1cc(-c2ccc(OCCO[C@H]3C[C@@H](C(=O)O)C3)cc2)oc2c(Cl)cccc12` [Example 1-A, cis-3-[2-[4-(8-chloro-4-oxo-chromen-2-yl)phenoxy]ethoxy]cyclobutanecarboxylic acid], the IC50 in experiment [1] (setting [6]) is 0.14 µM; in experiment [2] (setting [5]) it was 0.72 µM.
The like results for `O=c1cc(-c2ccc(OCCO[C@H]3C[C@H](C(=O)O)C3)cc2)oc2c(Cl)cccc12` [Example 1-B, trans-3-[2-[4-(8-chloro-4-oxo-chromen-2-yl)phenoxy]ethoxy]cyclobutanecarboxylic acid] were, in that order, 0.14 µM and 0.08 µM.
As to `CCOC(=O)C1CC(OCCOc2ccc(-c3cc(=O)c4cccc(Cl)c4o3)cc2)C1` (stereo not shown) [Example 2, Ethyl 3-[2-[4-(8-chloro-4-oxo-chromen-2-yl)phenoxy]ethoxy]cyclobutanecarboxylate], the IC50 amounted to 2.48 µM in experiment [1] (setting [6]) and 0.19 µM in experiment [2] (setting [5]).
For the compound `O=C(O)c1cccc(OCCOc2ccc(-c3cc(=O)c4cccc(Cl)c4o3)cc2)c1` [Example 3, 3-[2-[4-(8-chloro-4-oxo-chromen-2-yl)phenoxy]ethoxy]benzoic acid], the IC50 in experiment [1] (setting [6]) came to 0.15 µM; in experiment [2] (Hepatitis B virus, Hepatocyte, 216 h, extracellular HBV DNA by quantitative PCR, read-out: HBV DNA IC50), 35.7 µM; in experiment [2] (setting [5]) it was 12.5 µM.
`O=C(O)C1CCC(OCCOc2ccc(-c3cc(=O)c4cccc(Cl)c4o3)cc2)C1` (stereo not shown) [Example 6, 3-[2-[4-(8-chloro-4-oxo-chromen-2-yl)phenoxy]ethoxy]cyclopentanecarboxylic acid]: the IC50 in experiment [1] (setting [6]) was determined as 1.95 µM; in experiment [2] (setting [5]) it was 0.86 µM.
The like results for `O=C(O)COC1CC(COc2ccc(-c3cc(=O)c4cccc(Cl)c4o3)cc2)C1` (stereo not shown) [Example 8, 2-[3-[[4-(8-chloro-4-oxo-chromen-2-yl)phenoxy]methyl]cyclobutoxy]acetic acid] were, in that order, 1.34 µM and 0.12 µM.
The like results for `O=C(O)CCOCCOc1ccc(-c2cc(=O)c3cccc(Cl)c3o2)cc1` [Example 10, 3-[2-[4-(8-chloro-4-oxo-chromen-2-yl)phenoxy]ethoxy]propanoic acid] were, in that order, 0.79 µM and 2.72 µM.
Turning to `CC(C)(COCCOc1ccc(-c2cc(=O)c3cccc(Cl)c3o2)cc1)C(=O)O` [Example 11, 3-[2-[4-(8-chloro-4-oxo-chromen-2-yl)phenoxy]ethoxy]-2,2-dimethyl-propanoic acid], the IC50 worked out at 0.57 µM in experiment [1] (setting [6]) and 12.5 µM in experiment [2] (setting [5]).

Source of the values: patent US12012390B2, “Flavone compounds for the treatment and prophylaxis of hepatitis B virus disease” (priority 2018, dated 2024).
